Like-named read-outs stand apart in the source and are kept apart here.
What was measured:
[1] = target: T1, hGR (human glutathione reductase) (Homo sapiens, UniProt P00390); experiment: hGR enzymatic inhibition assay (NADPH oxidation at 340 nm); assay type: biochemical; conditions: for IC50: 50 nM hGR, 100 μM NADPH, 25 °C; for SI (ratio of GR IC50/TR IC50): hGR versus LiTR
T1 construct: purchased Sigma-Aldrich
T1 sequence (P00390 44-522): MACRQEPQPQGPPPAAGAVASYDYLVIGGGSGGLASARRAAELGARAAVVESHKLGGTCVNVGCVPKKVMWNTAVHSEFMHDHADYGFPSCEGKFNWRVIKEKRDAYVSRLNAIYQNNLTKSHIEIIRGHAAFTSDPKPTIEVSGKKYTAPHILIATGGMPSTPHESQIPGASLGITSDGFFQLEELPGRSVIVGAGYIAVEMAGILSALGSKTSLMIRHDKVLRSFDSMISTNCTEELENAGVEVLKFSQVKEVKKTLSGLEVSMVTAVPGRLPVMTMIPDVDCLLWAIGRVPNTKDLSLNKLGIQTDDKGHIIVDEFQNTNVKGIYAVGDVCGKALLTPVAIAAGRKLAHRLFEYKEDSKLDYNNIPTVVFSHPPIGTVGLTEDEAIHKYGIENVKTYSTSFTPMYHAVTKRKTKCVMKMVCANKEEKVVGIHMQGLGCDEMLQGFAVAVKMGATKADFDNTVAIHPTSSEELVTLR
Procedure: Enzymatic inhibition assays were performed in 50 mM HEPES pH 7.4, 40 mM NaCl at 25 °C using a JASCO V650 spectrophotometer equipped with a JASCO EHC 716 Peltier element to ensure controlled temperature. The first experiment was carried out using 50 nM LiTR, 10 or 100 μM compound to be tested, 150 μM trypanothione (trypanothione disulfide purchased from Bachem), and 100 μM NADPH (tetrasodium salt, purchased from Calbiochem). The best inhibitor candidates were then tested at concentrations ranging from 1 nM to 250 μM to determine the IC50. Assays were initiated upon addition of 100 μM NADPH to 50 nM LiTR or hGR (human glutathione reductase purchased from Sigma-Aldrich) in the presence of different concentration of compounds and 150 μM trypanothione. For both experiments, the oxidation of NADPH was followed as a decrease in absorbance at 340 nm. For each concentration of compound, the initial velocity of the NADPH oxidation was used to determine the percentage of LiTR activity with respect to that in the absence of any compound. The IC50 was determined upon fitting the residual activity of TR as a dose–response logistic equation defined as ymin + (ymax – ymin)/(1 + (x/IC50)^slope). […] The Ki was determined graphically upon linear fitting of data points for each trypanothione concentration. Data analysis was performed with QtiPlot 0.9.8.9 svn 2288, and graphs were made with Matplotlib.
Figure S3. Inhibition assay of LiTR (red) and hGR (grey) with compounds 5-6, 9-10 and 14.
Enzymatic assays were carried out at 25°C on a JASCO V650 spectrophotometer equipped with a JASCO EHC716 Peltier unit. Compound concentrations used during the experiments range from 1 […]
higher than 30 µM and 20 µM, respectively. Briefly, 50 nM LiTR or hGR (Sigma Aldrich) were mixed in 50 mM HEPES pH 7.4, 40 mM NaCl with each compound and 150 µM trypanothione or glutathione. After 3-minute incubation at 25°C, the measurement was initiated upon addition of 100 µM NADPH. The oxidation of NADPH was followed as a decrease in absorbance at 340 nm. Each initial velocity of LiTR enzymatic reaction with the compounds was expressed as a percentage of residual activity with respect to that in the absence of compound. Each data point is the mean of two measurements. The IC50 was determined upon fitting the data as a dose response logistic equation defined by the Kaleidagraph software as ymin+(ymax-ymin)/(1+(x/IC50)^slope).
(1 picture or pasted object on this page, not shown here)

[2] = system: L. infantum axenic amastigotes; experiment: In vitro inhibition of axenic amastigote growth (MTT); assay type: cell-based, Leishmania infantum; conditions: 72 h, read-out: axenic amastigote EC50 ± SE (95% CI)
Procedure: Axenic amastigote growth inhibition was evaluated using L. infantum strain (MHOM/TN/80/IPT1, WHO international reference strain). Axenic amastigote cultures were obtained as described previously with modifications.[45] Promastigotes were grown in Schneider’s Drosophila medium (SIGMA) containing 10% heat-inactivated fetal calf serum (FCS)(GIBCO-BRL) and 2% gentamicin (50 mg/L)(Sigma) in 25 cm^2 flasks at 22 °C. After 4–5 days, the parasites were adjusted to 1 × 10^6 parasites/mL in axenic medium MAA/20 consisting of modified medium 199 (Gibco BRL) with Hanks’ salts supplemented with 0.5% tryptic soy broth (Sigma), 0.01 mM bathocuproine disulfonic acid, 3 mM L-cysteine, 15 mM D-glucose, 5 mM L-glutamine, 4 mM NaHCO3, 0.023 mM bovine hemin, and 25 mM HEPES to a final pH of 6.5 and supplemented with 20% pretested FCS, and axenic amastigotes were obtained by shifting the incubation conditions: 198 μL of suspension was seeded in triplicate in 96-well flat bottom microplates and incubated at 37 °C, 5% CO2 for 48 h in order to allow the axenization. The amastigote cells were visualized under the light microscope to confirm transformation. Then, 2 μL of the selected compounds with varying concentrations were added: 100, 50, 25, 12.5, 6.25, 3.12, 1.56, 0.8, 0.4, 0.2, 0.1, 0.05 μM. […] Each experiment was conducted in triplicate for each drug concentration, and three independent experiments were performed. To estimate the 50% inhibitory concentration (IC50), the (3-[4.5-dimethylthiazol-2-yl]-2.5-diphenyltetrazolium bromide) (MTT) micromethod was used throughout the experiments with modification. After 72 h of incubation, 30 μL of MTT was added to each well, and the plates were further incubated for 3 h. The absorbance at 550 nm was measured with a 96-well scanner. Antileishmanial activity was expressed as the percentage of inhibition in the number of live parasites compared to that in the control (nontreated parasites). % inhibition was calculated as follows: % growth inhibition = [(absorb cell with drug × 100)/absorb cell control] – 100. Results were analyzed by GraphPad Prism 5.0, dose–response curves were obtained and IC50 deduced (GraphPad Software Inc., San Diego, USA).

SMILES | IC50 [1] [µM] | SI (ratio of GR IC50/TR IC50) [1] | EC50 [2] [µM] | EC50 ([2]; Leishmania infantum) [µM]
C[N+]1(CCCc2ccccc2)CCN(C(=O)N(Cc2ccc(C(=O)NCCc3ccc(F)cc3)o2)c2ccc(F)cc2)CC1.[I-] [Compound 9, 4-(((5-((4-Fluorophenethyl)carbamoyl)furan-2-yl)methyl)(4-fluorophenyl)carbamoyl)-1-methyl-1-(3-phenylpropyl)piperazin-1-ium Iodide] | 62.4 ± 12.4 | 3.0 | 10.4 ± 1.1 | 10.4
O=C(NCCc1ccc(F)cc1)c1ccc(CN(C(=O)N2CC[N+](CCCc3ccccc3)(Cc3ccc(Cl)c(Cl)c3)CC2)c2ccc(F)cc2)o1.[I-] [Compound 10, 1-(3,4-Dichlorobenzyl)-4-(((5-((4-fluorophenethyl)carbamoyl)furan-2-yl)methyl)(4-fluorophenyl)carbamoyl)-1-(3-phenylpropyl)piperazin-1-ium Iodide] | 2.3 ± 0.1 | 1.7 |  | 11 ± 1.9
O=C(NCCc1ccc(F)cc1)c1ccc(CNC(=O)N2CC[N+](CCCc3ccccc3)(Cc3ccc(Cl)c(Cl)c3)CC2)o1.[I-] [Compound 14, 1-(3,4-Dichlorobenzyl)-4-(((5-((4-fluorophenethyl)carbamoyl)furan-2-yl)methyl)carbamoyl)-1-(3-phenylpropyl)piperazin-1-ium Iodide] | 3.7 ± 0.3 | 1.6 |  | 8.98 ± 0.4
